# According to patent US11008304B2, “Tetrazole containing apoptosis signal-regulating kinase 1 inhibitors and methods of use thereof” (ENANTA PHARMACEUTICALS, INC., priority 2018, dated 2021):
# Molecular target: ASK1 kinase (Homo sapiens (Human), UniProt Q99683)
# Assay: HTRF KinEASE assay of ASK1 kinase activity inhibition
# Assay type: biochemical
# Settings: 5 nM ASK1, 1 uM STK3 peptide substrate, 100 uM ATP, TR-FRET readout
# Description: The ability (IC50) of compounds to inhibit ASK1 kinase activity was determined by HTRF® KinEASE™ Assay System. ASK1 was purchased from Thermofisher (Catalogue #PV4011), ATP was purchased from Sigma (Catalogue #A7699), HTRF® KinEASE™ Assay System was obtained from Cisbio (Bedford, Mass.). ½ Area plate was purchased from Perkin Elmer (Catalogue ##6005560). HTRF® KinEASE™-STK is a generic method for measuring serine/threonine kinase activities using a time-resolved fluorescence resonance energy transfer (TR-FRET) immunoassay. The IC50 value for each compound was determined in the presence of compound (various concentration from 0 to 10 μM) and a fixed amount of ATP and peptide substrates. The test compound, 1 uM STK3 peptide substrate, and 5 nM of ASK1 kinase are incubated with kinase reaction buffer containing 50 mM HEPES pH 7.5, 0.01% BRIJ-35, 10 mM MgCl2, and 1 mM EGTA for 30 minutes. 100 uM ATP is added to start kinase reaction and incubated for 3 hours. The STK3-antibody labeled with Eu^3+-Cryptate and 125 nM streptavidin-XL665 are mixed in a single addition with stop reagents provided by the Cisbio kit used to stop the kinase reaction. Fluorescence is detected using an Envision Multilabeled 2014 reader from PerkinElmer. The Fluorescence is measured at 615 nm (Cryptate) and 665 nm (XL665) and a ratio of 665 nm/615 nm is calculated for each well. The resulting TR-FRET is proportional to the phosphorylation level. Staurosporine was used as the positive control. IC50 was determined by XLfit 5.3. By using above method, the inhibition of ASK1 was tested for the compound of formula (I). IC50 ranges are as follows: A<1 nM; 1 nM<B<10 nM; 10 nM<C<100 nM; 100 nM<D<1 μM; E>1 μM.
# Sequence of ASK1 kinase (Q99683 whole entry): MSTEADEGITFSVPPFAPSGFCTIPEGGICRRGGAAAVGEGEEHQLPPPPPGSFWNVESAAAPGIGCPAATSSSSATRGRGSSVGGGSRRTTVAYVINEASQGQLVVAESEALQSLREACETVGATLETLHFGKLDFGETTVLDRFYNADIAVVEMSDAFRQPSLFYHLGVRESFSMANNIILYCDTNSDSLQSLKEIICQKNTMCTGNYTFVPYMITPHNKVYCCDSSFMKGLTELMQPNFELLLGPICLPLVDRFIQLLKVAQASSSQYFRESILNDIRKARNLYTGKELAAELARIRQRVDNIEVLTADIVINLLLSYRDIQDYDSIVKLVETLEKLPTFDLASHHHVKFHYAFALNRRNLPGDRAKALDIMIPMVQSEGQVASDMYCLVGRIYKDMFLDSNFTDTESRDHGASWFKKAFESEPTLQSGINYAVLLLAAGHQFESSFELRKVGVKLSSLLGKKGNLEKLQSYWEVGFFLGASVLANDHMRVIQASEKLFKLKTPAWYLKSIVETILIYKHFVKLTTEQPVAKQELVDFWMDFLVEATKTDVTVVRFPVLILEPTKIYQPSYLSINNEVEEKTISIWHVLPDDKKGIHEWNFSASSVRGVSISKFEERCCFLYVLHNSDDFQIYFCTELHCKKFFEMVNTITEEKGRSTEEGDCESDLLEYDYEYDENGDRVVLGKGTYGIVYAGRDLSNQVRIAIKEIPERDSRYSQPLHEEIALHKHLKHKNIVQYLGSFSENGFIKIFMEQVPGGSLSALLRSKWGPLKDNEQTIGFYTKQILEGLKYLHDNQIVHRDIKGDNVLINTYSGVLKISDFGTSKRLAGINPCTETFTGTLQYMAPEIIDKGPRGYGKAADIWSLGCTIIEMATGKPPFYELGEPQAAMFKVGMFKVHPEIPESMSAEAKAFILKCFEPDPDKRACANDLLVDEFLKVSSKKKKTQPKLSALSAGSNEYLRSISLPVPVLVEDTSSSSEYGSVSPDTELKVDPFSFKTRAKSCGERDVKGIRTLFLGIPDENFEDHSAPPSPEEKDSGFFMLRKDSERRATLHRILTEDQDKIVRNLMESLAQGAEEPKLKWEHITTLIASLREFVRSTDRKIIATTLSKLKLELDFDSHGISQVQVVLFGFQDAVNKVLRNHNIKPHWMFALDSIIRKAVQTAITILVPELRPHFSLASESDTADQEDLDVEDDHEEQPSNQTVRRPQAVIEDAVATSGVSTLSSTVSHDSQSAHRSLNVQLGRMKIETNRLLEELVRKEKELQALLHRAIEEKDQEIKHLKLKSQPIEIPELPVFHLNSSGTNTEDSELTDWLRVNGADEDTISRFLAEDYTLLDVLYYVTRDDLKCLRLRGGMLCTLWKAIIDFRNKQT
row,IC50 [nM],SMILES
1,10 to 100,CC(C)n1nnnc1-c1nc(NC(=O)c2cc(-c3cnn(C4CC4)c3)c(F)cn2)cs1 [Example 8]
2,10 to 100,Cc1cnc(C(=O)Nc2cccc(-c3nnnn3C(C)C)n2)cc1-c1ccccn1 [Example 36]
3,10 to 100,Cc1cnc(C(=O)Nc2cccc(-c3nnnn3C(C)C)n2)cc1-c1ccn(C(C)C)n1 [Example 33]
4,1 to 10,CC(C)n1nnnc1-c1cccc(NC(=O)c2cc(-c3cnn(C4CC4)c3)c(N3CCOCC3)cn2)n1 [Example 6]
5,10 to 100,CC(C)n1nnnc1-c1cccc(NC(=O)c2cc(-c3cnn(C4CC4)c3)c(C(F)(F)F)cn2)n1 [Example 14]
6,1 to 10,CC(C)n1nnnc1-c1nc(NC(=O)c2cc(-c3cnn(C4CC4)c3)c(N3CCCC3)cn2)cs1 [Example 9]
7,1 to 10,Cc1cc(F)c(C(=O)Nc2cccc(-n3nnnc3C(C)C)n2)cc1-c1cnn(C(C)(C)C)c1 [Example 53]
8,> 1000,Cc1cc(F)c(C(=O)Nc2cccc(-n3nnnc3C(C)C)n2)cc1-c1cn(C(C)C)cn1 [Example 62]

# The next lines start with the compound.
row,SMILES,IC50 [nM]
1,COc1cc(C)c(-c2cnn(C)c2)cc1C(=O)Nc1cccc(-c2nnnn2C(C)C)n1 [Example 73],1 to 10
2,Cc1cnc(C(=O)Nc2cccc(-c3nnnn3[C@H](C)CO)n2)cc1-c1cnn(C(C)C)c1 [Example 28],1 to 10
3,Cc1cc(F)c(C(=O)Nc2cccc(-c3nnnn3[C@@H]3CCOC3)n2)cc1-c1cnn(C2CC2)c1 [Example 82],1 to 10
4,Cc1cnc(C(=O)Nc2cccc(-c3nnnn3C(C)C)n2)cc1-c1cccnc1 [Example 37],1 to 10
5,Cc1cc(F)c(C(=O)Nc2cccc(-c3nnnn3[C@H]3CCC[C@@H]3O)n2)cc1-c1cnn(C2CC2)c1 [Example 83],1 to 10
6,Cc1cc(F)c(C(=O)Nc2cccc(-c3nnnn3[C@H](C)CO)n2)cc1-c1cnn(C(C)C)c1 [Example 50],1 to 10
7,COc1cc(C)c(-c2ccn(C(C)C)n2)cc1C(=O)Nc1cccc(-c2nnnn2C(C)C)n1 [Example 78],1 to 10
8,Cc1cc(F)c(C(=O)Nc2cccc(-c3nnnn3C(C)C)n2)cc1-c1ccc(C2CC2)s1 [Example 69],10 to 100
9,Cc1cc(F)c(C(=O)Nc2cccc(-c3nnnn3C(C)C)n2)cc1-c1cnn(C(C)C)c1 [Example 49],1 to 10
